Drawing on US9326513B2, “Fungicidal compositions” (Syngenta Participations AG, priority 2011, dated 2016), this text covers pest or weed control for 55 compounds.

Format in all cases: in vivo
Holding throughout (conditions): foliar, compared to untreated control leaf disks, read-out: disease control

Experiment [1] relates to Blumeria graminis f. sp. tritici (Erysiphe graminis f. sp. tritici). The experiment in a line: Blumeria graminis f. sp. tritici / wheat / leaf disc preventative (powdery mildew on wheat). Here is the method:
Blumeria graminis f. sp. tritici (Erysiphe graminis f. sp. tritici)/Wheat/Leaf Disc Preventative (Powdery Mildew on Wheat)
Wheat leaf segments cv. Kanzler were placed on agar in a multiwell plate (24-well format) and sprayed with the formulated test compound diluted in water. The leaf disks were inoculated by shaking powdery mildew infected plants above the test plates 1 day after application. The inoculated leaf disks were incubated at 20° C. and 60% rh under a light regime of 24 h darkness followed by 12 h light/12 h darkness in a climate chamber and the activity of a compound was assessed as percent disease control compared to untreated when an appropriate level of disease damage appears on untreated check leaf segments (6-8 days after application).
The following compounds gave at 200 ppm give at least 50% disease control in this test when compared to untreated control leaf disks under the same conditions, which show extensive disease development: […]

The subject of experiment [2] is Puccinia recondita f. sp. tritici. The experiment in a line: Puccinia recondita f. sp. tritici / wheat / leaf disc curative (brown rust). Here is the method: Puccinia recondita f. sp. tritici/Wheat/Leaf Disc Curative (Brown Rust) Wheat leaf segments cv. Kanzler are placed on agar in multiwell plates (24-well format). The leaf segments are inoculated with a spore suspension of the fungus. Plates were stored in darkness at 19° C. and 75% rh. The formulated test compound diluted in water was applied 1 day after inoculation.

For experiment [3] the test system is unchanged. The experiment in a line: Puccinia recondita f. sp. tritici / wheat / leaf disc preventative (brown rust). An excerpt:
Puccinia recondita f. sp. tritici/Wheat/Leaf Disc Preventative (Brown Rust) Wheat leaf segments cv. Kanzler were placed on agar in multiwell plates (24-well format) and sprayed with the formulated test compound diluted in water. The leaf disks were inoculated with a spore suspension of the fungus 1 day after application.

Some results are limits rather than exact numbers.

`CCN(C)/C=N/c1cc(Br)c(OC2CCC(=O)CC2C)nc1C` (single isomer, unassigned) [Q.332]: the pest or weed control at 200 ppm in experiment [1], in experiment [2] and in experiment [3] was at least 50% throughout.

In the case of `CN/C=N/c1cc(Br)c(OCCCC(C)C)nc1C` [Q.003], in experiment [3], the pest or weed control at 200 ppm is at least 50%.

`Cc1nc(OCCCC(C)C)c(Br)cc1/N=C/N(C)C` [Q.006]: the pest or weed control at 200 ppm in experiment [1], in experiment [2] and in experiment [3] was at least 50% throughout.

`Cc1nc(OCCCC(C)C)c(Br)cc1/N=C/NC(C)C` [Q.008]: the pest or weed control at 200 ppm in experiment [3] was at least 50%.

As to `Cc1nc(OCCCC(C)C)c(Br)cc1/N=C/NC(C)(C)C` [Q.009], in experiment [3], the pest or weed control at 200 ppm is at least 50%.

`CCCN/C=N/c1cc(Br)c(OCCCC(C)C)nc1C` [Q.010]: the pest or weed control at 200 ppm in experiment [1], in experiment [2] and in experiment [3] was at least 50% each time.

On to `CCN(C)/C=N/c1cc(Br)c(OCCCC2CCCCC2)nc1C` [Q.017], for which the pest or weed control at 200 ppm in experiment [1] and in experiment [3] was at least 50% throughout.

On to `CCN(C)/C=N/c1cc(Br)c(OC2Cc3cc(Br)c(Br)cc3C2)nc1C` [Q.030], for which the pest or weed control at 200 ppm in experiment [1], in experiment [2] and in experiment [3] was at least 50% each time.

Turning to `CCN(C)/C=N/c1cc(Br)c(OC2CCC(=O)CC2)nc1C` [Q.031], the pest or weed control at 200 ppm in experiment [1], in experiment [2] and in experiment [3] was at least 50% in each case.

Turning to `CCN(C)/C=N/c1cc(Br)c(OCCCC(O)COC)nc1C` (centres unmarked) [Q.036], the pest or weed control at 200 ppm in experiment [1], in experiment [2] and in experiment [3] was at least 50% each time.

Turning to `CCN(C)/C=N/c1cc(Br)c(OCCCCc2ccc(Cl)cc2)nc1C` [Q.045], the pest or weed control at 200 ppm in experiment [1], in experiment [2] and in experiment [3] was at least 50% each time.

For the compound `CCN(C)/C=N/c1cc(Br)c(OC2CCCc3ccc(F)cc32)nc1C` (centres unmarked) [Q.048], the pest or weed control at 200 ppm in experiment [1], in experiment [2] and in experiment [3] was at least 50% in each case.

Turning to `CCN(C)/C=N/c1cc(Br)c(OC2CCCC3CCCCC32)nc1C` (centres unmarked) [Q.049], the pest or weed control at 200 ppm in experiment [1], in experiment [2] and in experiment [3] was at least 50% each time.

As for `CCN(C)/C=N/c1cc(Br)c(OC2CCc3c(OC)cccc32)nc1C` (centres unmarked) [Q.050], the pest or weed control at 200 ppm in experiment [1], in experiment [2] and in experiment [3] was at least 50% throughout.

Take `CCN(C)/C=N/c1cc(Br)c(OCCO)nc1C` [Q.056]: the pest or weed control at 200 ppm in experiment [3] was at least 50%.

For the compound `CCCCCCCCCCOc1nc(C)c(/N=C/N(C)CC)cc1C` [Q.058], the pest or weed control at 200 ppm in experiment [1], in experiment [2] and in experiment [3] was at least 50% each time.

Turning to `CCN(C)/C=N/c1cc(Br)c(OCCCC(CCl)OC=O)nc1C` (centres unmarked) [Q.060], the pest or weed control at 200 ppm in experiment [1], in experiment [2] and in experiment [3] was at least 50% throughout.

Turning to `CCN(C)/C=N/c1cc(Br)c(OCCOCOC)nc1C` [Q.061], in experiment [3], the pest or weed control at 200 ppm is at least 50%.

As for `CCN(C)/C=N/c1cc(Br)c(OC2CC(C)CCC2C(C)C)nc1C` (centres unmarked) [Q.083], the pest or weed control at 200 ppm in experiment [3] is at least 50%.

Take `CCN(C)/C=N/c1cc(Br)c(OCc2ccc(Cl)cc2Cl)nc1C` [Q.096]: the pest or weed control at 200 ppm in experiment [2] and in experiment [3] was at least 50% throughout.

In the case of `CCN(C)/C=N/c1cc(Br)c(OCc2cc(-c3ccccc3)ns2)nc1C` [Q.107], the pest or weed control at 200 ppm in experiment [3] is at least 50%.

With `CCN(C)/C=N/c1cc(Br)c(OCc2snc(-c3ccccc3)c2Br)nc1C` [Q.108], the pest or weed control at 200 ppm in experiment [1] and in experiment [3] was at least 50% throughout.

Consider `CCN(C)/C=N/c1cc(Br)c(OC2CCCc3ccccc32)nc1C` (centres unmarked) [Q.138], for which, in experiment [3], the pest or weed control at 200 ppm was at least 50%.

As to `CCN(C)/C=N/c1cc(Br)c(OC2Cc3ccc(-c4ccccc4)cc3C2)nc1C` (centres unmarked) [Q.142], the pest or weed control at 200 ppm in experiment [1] and in experiment [3] was at least 50% each time.

Take `CCCC(CCC)Oc1nc(C)c(/N=C/N(C)CC)cc1Br` [Q.150]: the pest or weed control at 200 ppm in experiment [3] was at least 50%.

`CCN(C)/C=N/c1cc(Br)c(OCc2snc(-c3ccc(F)cc3)c2C#N)nc1C` [Q.157]: the pest or weed control at 200 ppm in experiment [3] was at least 50%.

On to `CCN(C)/C=N/c1cc(Br)c(OC2CCNCC2)nc1C` [Q.159], for which the pest or weed control at 200 ppm in experiment [2] and in experiment [3] was at least 50% in each case.

For the compound `CCN(C)/C=N/c1cc(Br)c(OC2C=C(C)CCC2)nc1C` (centres unmarked) [Q.173], the pest or weed control at 200 ppm in experiment [3] is at least 50%.

`CCN(C)/C=N/c1ccc(O[C@H]2CC[C@H](C(C)C)CC2)nc1C` [Q.182]: the pest or weed control at 200 ppm in experiment [2] and in experiment [3] was at least 50% in each case.

Consider `CCN(/C=N/c1cc(Br)c(OC(C)c2cc(F)cc(F)c2)nc1C)CC` (centres unmarked) [Q.187], for which the pest or weed control at 200 ppm in experiment [1] and in experiment [3] was at least 50% throughout.

Consider `C#CCN(C)/C=N/c1cc(Br)c(OC(C)c2cc(F)cc(F)c2)nc1C` (centres unmarked) [Q.189], for which the pest or weed control at 200 ppm in experiment [3] is at least 50%.

With `C#CC(C)N(C)/C=N/c1cc(Br)c(OC(C)c2cc(F)cc(F)c2)nc1C` (centres unmarked) [Q.190], the pest or weed control at 200 ppm in experiment [3] is at least 50%.

Regarding `Cc1nc(OC(C)c2cc(F)cc(F)c2)c(Br)cc1/N=C/N1CC=CC1` (centres unmarked) [Q.194], the pest or weed control at 200 ppm in experiment [2] and in experiment [3] was at least 50% each time.

With `CCN(C)/C=N/c1cc(Br)c(OCc2snc(-c3ccccc3)c2C#N)nc1C` [Q.210], in experiment [3], the pest or weed control at 200 ppm is at least 50%.

Take `CCN(C)/C=N/c1cc(Br)c(OC(CC(C)C)CC(C)C)nc1C` [Q.234]: the pest or weed control at 200 ppm in experiment [3] is at least 50%.

For the compound `CC#Cc1cc(/N=C/N(C)CC)c(C)nc1OC1CCC(C(C)C)CC1` (centres unmarked) [Q.254], the pest or weed control at 200 ppm in experiment [2] and in experiment [3] was at least 50% each time.

`CCN(C)/C=N/c1cc([Si](C)(C)C)c(OCc2ccccc2C)nc1C` [Q.257]: the pest or weed control at 200 ppm in experiment [2] and in experiment [3] was at least 50% in each case.

As for `CCN(C)/C=N/c1cc([Si](CC)(CC)CC)c(OCc2ccccc2C)nc1C` [Q.258], the pest or weed control at 200 ppm in experiment [2] and in experiment [3] was at least 50% each time.

As for `CCC[Si](CCC)(CCC)c1cc(/N=C/N(C)CC)c(C)nc1OCc1ccccc1C` [Q.259], the pest or weed control at 200 ppm in experiment [3] was at least 50%.

Turning to `CCN(C)/C=N/c1cc(-c2ccc(F)cc2)c(OC(C)c2cc(F)cc(F)c2)nc1C` (centres unmarked) [Q.264], the pest or weed control at 200 ppm in experiment [3] is at least 50%.

For `CCN(C)/C=N/c1cc(-c2cccnc2)c(OC(C)c2cc(F)cc(F)c2)nc1C` (centres unmarked) [Q.266], the pest or weed control at 200 ppm in experiment [3] is at least 50%.

As to `CCCc1ccc(-c2cc(/N=C/N(C)CC)c(C)nc2OC(C)c2cc(F)cc(F)c2)cc1` (centres unmarked) [Q.267], the pest or weed control at 200 ppm in experiment [1] and in experiment [3] was at least 50% throughout.

Take `CCN(C)/C=N/c1cc(Br)c(O[C@H]2CC[C@H](C(C)C)CC2)nc1C` [Q.268]: the pest or weed control at 200 ppm in experiment [3] is at least 50%.

For the compound `CCN(C)/C=N/c1cc(Br)c(OC(C)C[Si](C)(C)C)nc1C` (centres unmarked) [Q.272], the pest or weed control at 200 ppm in experiment [1] and in experiment [3] was at least 50% in each case.

For `CCN(C)/C=N/c1cc(Br)c(OC(C)(C)c2ccccc2)nc1C` [Q.279], the pest or weed control at 200 ppm in experiment [2] and in experiment [3] was at least 50% each time.

Turning to `CCN(C)/C=N/c1cc(Br)c(OC(C)c2cccc(C#Cc3ccccc3)c2)nc1C` (centres unmarked) [Q.312], the pest or weed control at 200 ppm in experiment [1] and in experiment [3] was at least 50% in each case.

With `CCN(C)/C=N/c1cc(Br)c(OC(C)c2ccccc2C#Cc2ccccc2)nc1C` (centres unmarked) [Q.313], the pest or weed control at 200 ppm in experiment [3] was at least 50%.

As to `CCN(C)/C=N/c1cc(Br)c(OC(C)c2ccccc2CCc2ccccc2)nc1C` (centres unmarked) [Q.314], the pest or weed control at 200 ppm in experiment [3] is at least 50%.

Consider `CCN(C)/C=N/c1cc(Br)c(OCc2cccc(N)c2)nc1C` [Q.328], for which, in experiment [3], the pest or weed control at 200 ppm is at least 50%.

As for `CCN(C)/C=N/c1cc(C(C)C)c(OC2CCC(C(C)C)CC2)nc1C` (centres unmarked) [Q.343], the pest or weed control at 200 ppm in experiment [1] and in experiment [3] was at least 50% throughout.

Regarding `CCC(Oc1ccc(/N=C/N(C)C(C)C)c(C)n1)c1ccccc1` (centres unmarked) [Q.348], the pest or weed control at 200 ppm in experiment [2] and in experiment [3] was at least 50% each time.

For the compound `Cc1cc(C)cc(CC(C)Oc2ccc(/N=C/N(C)C(C)C)c(C)n2)c1` (centres unmarked) [Q.362], the pest or weed control at 200 ppm in experiment [2] and in experiment [3] was at least 50% throughout.

For the compound `CCN(C)/C=N/c1ccc(OCc2cc(OC)cc(OC)c2)nc1C` [Q.372], the pest or weed control at 200 ppm in experiment [2] and in experiment [3] was at least 50% throughout.

`CCN(C)/C=N/c1cc(Br)c(O)nc1C` [Q.379]: in experiment [3], the pest or weed control at 200 ppm is at least 50%.

Turning to `CCN(C)/C=N/c1cc(Br)c(OC)nc1C` [Q.387], the pest or weed control at 200 ppm in experiment [3] was at least 50%.
